Experiments:
MIA PaCa-2 cells [1] = assay: MTT proliferation assay in MIA PaCa-2 cells; assay type: cell-based, human; conditions: Homo sapiens, MIA PaCa-2, 72 h drug exposure
Experimental: (§1) The human pancreatic carcinoma MIA PaCa-2 was purchased from China Centre for Type Culture Collection, AsPC-1 and BxPC-3 cell Lines were purchased from Cell Centre of the Institute of Basic Medical Sciences, Chinese Academy of Medical Sciences and Peking Union Medical College. PANC-1 was kindly provided by Nankai Hospital (Tianjin, China). These cancer cell lines were cultured according to the manufacturer’s instruction.
(§2) Then 3-fold diluted concentrations of tested compound were added respectively which was dissolved by DMSO in the ratio of 1:1000. After indicated incubation period, MTT was added to each well and incubated for 4 h at 37 °C. Then, the supernatant was discarded gently, and the precipitate was dissolved in 100 µL of DMSO in each well. The absorbance (A) at 570 nm was detected with a microplate reader (Multiskan MK3; Thermo Fisher Scientific, MA, USA). Vehicle-treated cells were served as the control for the calculation of relative cell viability (%) of treated group at single concentration. IC50 value was calculated directly from the inhibition curve of serial dilution of test compound and was expressed as mean ± SD using the SPSS statistical software (SPSS17.0 Inc., Chicago, IL, USA).

AsPC-1 = assay: MTT proliferation assay in AsPC-1 cells; assay type: cell-based; conditions: Homo sapiens, ASPC1; 72 h drug exposure
Experimental: as §1
as §2, with “Cells were planted in 96-well plates at a density of 3000–4000 cells per well and incubated at 37 °C in a humidified CO2 incubator for 24 h. Then 3-fold” for “Then 3-fold”

PANC-1 = assay: MTT proliferation assay in PANC-1 cells; assay type: cell-based; conditions: Homo sapiens, 72 h drug exposure
Experimental: as §1
as §2, with “Cells were planted in 96-well plates at a density of 3000–4000 cells per well and incubated at 37 °C in a humidified CO2 incubator for 24 h. Then 3-fold” for “Then 3-fold”

CDK9/cyclinT1 = CDK9/cyclinT1 (Homo sapiens, UniProt P50750); assay: CDK9/cyclinT1 Lance Ultra Assay, single concentration screen; assay type: biochemical; conditions: 50 nM, ATP concentration at Km, read-out: CDK9 inhibitory rate (%) @ 50nM
Experimental: (§3) CDK kinase activity (IC50 values and inhibitory rate at single concentration) was measured using the kinase profiling services (Shanghai ChemPartner Co., Ltd). Compounds were sent to ChemPartner as a solution in DMSO at concentration of 10 mM.

CDK7 = CDK7 (Homo sapiens, UniProt P50613); assay: CDK7 kinase IC50, Mobility shift assay; assay type: biochemical
Experimental: as §3

CDK9 = CDK9 (Homo sapiens, UniProt P50750); assay: CDK9 kinase IC50, Mobility shift assay; assay type: biochemical
Experimental: as §3

MIA PaCa-2 cells [2] = assay: Cell cycle analysis by PI staining and flow cytometry; assay type: cell-based, human; conditions: 24 h treatment
Experimental: (§4) MIA PaCa-2 cells were incubated with test compound at given concentration for indicated time in 6 well plates. The cells were collected and washed with cold PBS for two times. For cell cycle analysis, cells were fixed with 1 ml of 70% ethanol at −20 °C overnight then re-suspended with 400 µL binding buffer at density of 10^6 cells/mL, with PI staining for 30 min at room temperature. DNA contents were analysed by a BD Accuri C6 flow cytometry (BD Biosciences, Mountain View, CA, USA). For cell apoptosis analysis, after centrifugation and removal of the supernatants, cells were resuspended in 500 µL of 1 ×binding buffer which was then added to 5 µL of annexin V-FITC and incubated at room temperature for 10 min. After adding 10 µL of PI the cells were incubated at room temperature for another 10 min, and their fluorescence intensity evaluated by a BD Accuri C6 (BD Biosciences, Mountain View, CA, USA).

MIA PaCa-2 cells [3] = assay: Apoptosis analysis by PI and annexin V-FITC staining and flow cytometry; assay type: cell-based, human; conditions: 24 h treatment
Experimental: as §4

MIA PaCa-2 cells [4] = assay: Cell viability after CDK9 knockdown by siRNA; assay type: cell-based, human; conditions: siCDK9 50 nM; compound 0.2 µM, 72 h
Experimental: as §2, with “Cells were planted in 96-well plates at a density of 3000–4000 cells per well and incubated at 37 °C in a humidified CO2 incubator for 24 h. Then 3-fold” for “Then 3-fold”
Specific siRNAs against CDK9 (Catelog ID: SIGS0004694-1) were purchased from RiboBio (Guangdong, China) together with a scrambled siRNA. […] Approximately 48 h after transfection, the cells were analysed for protein expression by Western blot. […]

[5] = Solubility / precipitation observations; assay type: physicochemical
[6] = Body weight and H&E pathology of main organs in xenograft mice; assay type: in vivo, BALB/C nude mice
Experimental: AsPC-1 (5 × 10^7) cells were injected subcutaneously into 5-week-old female BALB/C nude mice (Beijing Huafukang Bioscience CO. Inc, Beijing, China). After two weeks, mice were omogenizamised and treated with vehicle, gemcitabine (GCTB), or test compound. Blank solvent and test compound was administered by oral gavage (10 ml/kg) with once daily of five days and followed by 2 days off in each week, GCTB was given once a week by 50 mg/kg intraperitoneal injection. Mice were inspected daily for clinical signs, both tumour diameters and body weight were determined 3 times weekly. Tumour volumes were calculated according to the formula “tumor volume (V) = length × width^2/2”. Median TGI values were calculated as follows: TGI = 100 × [1-(Vtreated group at day20-Vtreated group at day1)/(Vvehicle group at day20-Vvehicle group at day1)]. Data were plotted as average with SD in the graphical representation of tumour growth. The p values obtained from the two-way ANOVA analysis. Meanwhile, main organs of mice were collected, formalin-fixed and paraffin-embedded for pathological analysis by H&E dyeing. For drug concentration determination, blood and tumour tissues were collected at indicated time after single administration. Standard curve of test compound was established in the acquisition mode of SIM using a SHIMADZU LC-MS instrument. Blood kept in anticoagulant tube coated with heparin sodium was centrifuged to provide the supernatant, which was followed by added with 3-fold acetonitrile to precipitate plasma protein. After centrifugation at 10 × 10^3 for 5 min, the supernatant was injected directedly into LC-MS instrument for quantification of drug concentration. As for tumour tissues, omogenizationation (Precellys Evolution) was done after weighed accurately and added with 3-fold saline. After centrifugation under same condition as plasma samples, supernatant was separated and injected into LC-MS for quantification.

Sequence of CDK9/cyclinT1 (P50750 whole entry): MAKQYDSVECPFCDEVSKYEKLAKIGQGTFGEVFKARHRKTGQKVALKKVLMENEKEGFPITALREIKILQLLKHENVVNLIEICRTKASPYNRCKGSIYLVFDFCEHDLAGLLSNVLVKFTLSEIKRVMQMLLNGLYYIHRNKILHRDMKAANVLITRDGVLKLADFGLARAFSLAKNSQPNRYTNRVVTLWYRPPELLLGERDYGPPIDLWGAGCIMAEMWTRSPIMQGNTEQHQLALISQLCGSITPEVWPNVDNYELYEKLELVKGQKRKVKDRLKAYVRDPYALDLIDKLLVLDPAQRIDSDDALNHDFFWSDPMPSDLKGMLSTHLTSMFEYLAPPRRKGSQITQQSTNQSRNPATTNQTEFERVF
Sequence of CDK9/cyclinT1 (O60563 whole entry partner): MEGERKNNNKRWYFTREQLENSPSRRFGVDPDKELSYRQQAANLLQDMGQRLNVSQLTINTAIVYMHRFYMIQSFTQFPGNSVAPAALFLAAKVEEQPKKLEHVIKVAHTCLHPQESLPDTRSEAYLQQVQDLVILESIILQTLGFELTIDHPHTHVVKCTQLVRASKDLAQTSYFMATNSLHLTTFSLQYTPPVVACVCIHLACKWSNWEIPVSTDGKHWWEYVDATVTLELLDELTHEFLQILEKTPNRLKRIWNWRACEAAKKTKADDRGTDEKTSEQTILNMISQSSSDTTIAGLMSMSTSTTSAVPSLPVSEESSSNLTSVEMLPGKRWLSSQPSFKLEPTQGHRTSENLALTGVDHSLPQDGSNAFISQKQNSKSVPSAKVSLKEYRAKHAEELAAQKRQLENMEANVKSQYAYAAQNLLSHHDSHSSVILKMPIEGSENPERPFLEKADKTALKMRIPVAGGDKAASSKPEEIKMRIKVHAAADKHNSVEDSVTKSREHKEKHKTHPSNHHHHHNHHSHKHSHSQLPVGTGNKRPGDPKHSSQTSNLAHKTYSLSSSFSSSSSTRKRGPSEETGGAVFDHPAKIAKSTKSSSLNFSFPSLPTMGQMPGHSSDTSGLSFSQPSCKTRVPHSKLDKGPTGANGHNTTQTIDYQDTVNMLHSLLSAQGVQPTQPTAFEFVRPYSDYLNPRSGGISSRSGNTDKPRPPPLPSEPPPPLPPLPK
Sequence of CDK9 (P50750 whole entry): as the sequence (P50750 whole entry) above
Sequence of CDK9 (O60563 whole entry partner): as the sequence (O60563 whole entry partner) above
Sequence of CDK7 (P50613 whole entry): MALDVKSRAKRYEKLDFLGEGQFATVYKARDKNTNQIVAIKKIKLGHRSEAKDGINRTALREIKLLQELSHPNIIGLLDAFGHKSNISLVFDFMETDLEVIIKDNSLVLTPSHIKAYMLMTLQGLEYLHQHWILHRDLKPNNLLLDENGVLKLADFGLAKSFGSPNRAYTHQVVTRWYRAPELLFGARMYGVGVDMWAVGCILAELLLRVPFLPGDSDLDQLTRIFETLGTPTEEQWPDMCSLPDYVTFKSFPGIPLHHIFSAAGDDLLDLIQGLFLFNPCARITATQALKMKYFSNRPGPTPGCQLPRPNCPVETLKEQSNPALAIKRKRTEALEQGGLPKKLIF
Sequence of CDK7 (P51946 whole entry partner): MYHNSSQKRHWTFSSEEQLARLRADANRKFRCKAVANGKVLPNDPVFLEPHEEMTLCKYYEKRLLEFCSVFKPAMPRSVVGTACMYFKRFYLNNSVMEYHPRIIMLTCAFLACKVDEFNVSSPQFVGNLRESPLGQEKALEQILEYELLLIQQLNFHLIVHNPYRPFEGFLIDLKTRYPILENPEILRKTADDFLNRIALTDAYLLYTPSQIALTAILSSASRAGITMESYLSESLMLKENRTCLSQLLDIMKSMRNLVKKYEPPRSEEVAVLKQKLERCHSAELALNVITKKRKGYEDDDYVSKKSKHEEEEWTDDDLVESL
Sequence of CDK7 (P51948 whole entry partner): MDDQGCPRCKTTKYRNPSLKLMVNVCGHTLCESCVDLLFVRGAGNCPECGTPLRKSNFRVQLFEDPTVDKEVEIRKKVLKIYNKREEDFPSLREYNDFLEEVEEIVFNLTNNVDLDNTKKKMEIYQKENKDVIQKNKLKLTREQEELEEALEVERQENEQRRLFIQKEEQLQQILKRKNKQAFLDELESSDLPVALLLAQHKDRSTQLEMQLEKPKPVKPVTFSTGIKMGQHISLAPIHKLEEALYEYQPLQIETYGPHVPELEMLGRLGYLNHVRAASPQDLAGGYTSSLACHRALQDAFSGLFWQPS

CN(C)C(=O)c1cc2cnc(Nc3ccc(S(N)(=O)=O)cc3)nc2n1C1CCCC1 [compound 2g, 7-Cyclopentyl-N,N-dimethyl-2-((4-sulfamoylphenyl)amino)-7H-pyrrolo[2,3-d]pyrimidine-6-carboxamide]
IC50 (MIA PaCa-2 cells [1]): 0.52 ± 0.67 µM
IC50 (AsPC-1): 1.4 ± 0.034 µM
IC50 (PANC-1): 11 ± 4.97 µM
inhibition at 0.05 µM (CDK9/cyclinT1): 97.8%
IC50 (CDK7): > 10000 nM
IC50 (CDK9): 5 nM
effect on cell cycle (MIA PaCa-2 cells [2]; 0.1 µM): cell cycle arrest at G1 phase
effect on cell cycle (MIA PaCa-2 cells [2]; 0.3 and 1.0 µM): modest G2/M-arrested effect
number of late apoptotic cells (MIA PaCa-2 cells [3]): increased in a dose-dependent manner
sensitivity of MIA PaCa-2 cells to compound after downregulation of CDK9 by siRNA (MIA PaCa-2 cells [4]): significantly decreased
solubility (in words) [5]: much poorer than 5b
pathological change in main organs (H&E) ([6]; after 3-week treatment): no obvious pathological change
body weight change ([6]; high dose of 2g, first ten days of administration): obvious decrease of body weight

From PMC9858427, “Design, synthesis and biological evaluation of 2-((4-sulfamoylphenyl)amino)-pyrrolo[2,3-d]pyrimidine derivatives as CDK inhibitors” (Journal of Enzyme Inhibition and Medicinal Chemistry, 2023)
